Data from ChEMBL document CHEMBL5523762, “Discovery of Potent and Selective G9a Degraders for the Treatment of Pancreatic Cancer” (J Med Chem, 2024).
Calls of active or inactive are those of the source. The rule behind the calls is not given here.

Tests used:
[1] = molecular target: T1, Histone-lysine N-methyltransferase EHMT2 (Homo sapiens) (UniProt Q96KQ7); test: Inhibition of N-terminal GST tagged human recombinant G9a (785 to 1210 residues) expressed in Escherichia coli using H3(1 to 21)K9me1 and SAM as substrates incubated for 1 hr by HTRF assay
T1 sequence (whole entry): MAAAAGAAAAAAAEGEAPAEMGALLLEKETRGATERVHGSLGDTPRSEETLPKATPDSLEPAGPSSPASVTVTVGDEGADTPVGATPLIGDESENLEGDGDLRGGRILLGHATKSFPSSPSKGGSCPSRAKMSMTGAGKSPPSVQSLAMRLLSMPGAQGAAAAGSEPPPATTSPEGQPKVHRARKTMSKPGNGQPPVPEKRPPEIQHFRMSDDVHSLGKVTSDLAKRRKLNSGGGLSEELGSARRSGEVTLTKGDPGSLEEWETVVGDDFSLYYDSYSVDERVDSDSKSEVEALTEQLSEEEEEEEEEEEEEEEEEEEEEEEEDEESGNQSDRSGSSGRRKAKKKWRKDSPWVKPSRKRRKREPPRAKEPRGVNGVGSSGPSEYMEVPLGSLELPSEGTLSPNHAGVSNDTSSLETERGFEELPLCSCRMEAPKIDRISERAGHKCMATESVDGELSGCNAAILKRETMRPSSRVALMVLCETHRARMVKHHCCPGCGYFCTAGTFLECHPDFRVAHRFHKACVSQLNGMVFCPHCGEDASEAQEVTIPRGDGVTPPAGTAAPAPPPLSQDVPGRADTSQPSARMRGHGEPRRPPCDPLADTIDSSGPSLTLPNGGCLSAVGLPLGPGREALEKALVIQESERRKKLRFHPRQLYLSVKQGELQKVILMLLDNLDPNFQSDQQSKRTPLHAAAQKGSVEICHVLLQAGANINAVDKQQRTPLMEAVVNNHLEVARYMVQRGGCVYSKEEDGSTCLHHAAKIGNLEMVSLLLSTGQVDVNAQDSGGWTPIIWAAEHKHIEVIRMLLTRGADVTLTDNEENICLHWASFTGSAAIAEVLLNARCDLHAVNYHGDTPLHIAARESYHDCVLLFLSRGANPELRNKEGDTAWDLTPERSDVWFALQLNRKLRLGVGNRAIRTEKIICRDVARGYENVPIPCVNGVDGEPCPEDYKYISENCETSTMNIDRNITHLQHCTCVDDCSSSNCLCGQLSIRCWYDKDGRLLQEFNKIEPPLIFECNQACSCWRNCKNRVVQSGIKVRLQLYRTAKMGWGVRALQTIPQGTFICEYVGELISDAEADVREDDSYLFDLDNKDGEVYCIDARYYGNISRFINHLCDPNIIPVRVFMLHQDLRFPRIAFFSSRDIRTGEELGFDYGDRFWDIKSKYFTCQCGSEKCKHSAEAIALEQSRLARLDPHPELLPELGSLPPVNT

[2] = molecular target: T2, Protein cereblon/Histone-lysine N-methyltransferase EHMT2 (Homo sapiens, UniProt Q96KQ7+Q96SW2); test: PROTAC activity at CRBN/G9a in human PANC-1 cells assessed as induction of G9a degradation at 0.1 uM measured after 24 hrs by Western blot analysis; type: cell-based
T2 sequence (Q96SW2 whole entry partner, one chain of several): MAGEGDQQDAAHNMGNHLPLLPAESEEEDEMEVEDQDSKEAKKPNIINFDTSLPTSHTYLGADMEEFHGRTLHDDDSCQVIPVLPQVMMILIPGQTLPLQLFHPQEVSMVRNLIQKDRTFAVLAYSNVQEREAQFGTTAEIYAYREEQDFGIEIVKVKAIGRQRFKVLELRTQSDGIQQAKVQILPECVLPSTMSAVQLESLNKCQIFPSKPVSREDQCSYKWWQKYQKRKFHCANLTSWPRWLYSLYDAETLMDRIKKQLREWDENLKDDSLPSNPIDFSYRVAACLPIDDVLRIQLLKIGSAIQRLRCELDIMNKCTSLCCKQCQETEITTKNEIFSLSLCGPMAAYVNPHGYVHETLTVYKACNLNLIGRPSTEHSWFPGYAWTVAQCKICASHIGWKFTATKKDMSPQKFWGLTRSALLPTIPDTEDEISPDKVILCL

[3] = molecular target: T2, Protein cereblon/Histone-lysine N-methyltransferase EHMT2; test: PROTAC activity at CRBN/G9a in human PANC-1 cells assessed as induction of G9a degradation at 1 uM by Western blot analysis; type: cell-based
[4] = molecular target: T1, Histone-lysine N-methyltransferase EHMT2 (Homo sapiens); test: Induction of G9a degradation in human PANC-1 cells assessed as reduction in G9a protein level at 50 uM measured at 16 hrs by Western blot analysis; type: cell-based
[5] = molecular target: T2, Protein cereblon/Histone-lysine N-methyltransferase EHMT2; test: PROTAC activity at CRBN/G9a in human PANC-1 cells assessed as induction of G9a degradation at 0.1 to 1 uM measured after 24 hrs by Western blot analysis; type: cell-based; settings: dose 0.1-1 µM
[6] = molecular target: T1, Histone-lysine N-methyltransferase EHMT2 (Homo sapiens); test: Induction of G9a degradation in human PANC-1 cells assessed as reduction in G9a protein level at 10 uM by Western blot analysis; type: cell-based
[7] = molecular target: T1, Histone-lysine N-methyltransferase EHMT2 (Homo sapiens); test: Induction of G9a degradation in human PANC-1 cells assessed as reduction in G9a protein level at 10 uM in presence of 1 uM UNC0638 by Western blot analysis; type: cell-based

**Q.** Which results are given for `COc1cc2c(NC3CCN(CCCC(=O)NCCCCCCCNc4cccc5c4C(=O)N(C4CCC(=O)NC4=O)C5=O)CC3)nc(C3CCCCC3)nc2cc1OCCCN1CCCC1` (stereo not given)?
**A.** inhibition [1]: Active; Activity [2]: inactive

**Q.** For `COc1cc2c(NC3CCN(CCCC(=O)NCCCCCCCCNc4cccc5c4C(=O)N(C4CCC(=O)N(C)C4=O)C5=O)CC3)nc(C3CCCCC3)nc2cc1OCCCN1CCCC1` (stereo not given), which Activity [3] is on record?
**A.** Its Activity is “inactive”.

**Q.** With `COc1cc2c(NC3CCN(CCCC(=O)NCCCCCCCCCNc4cccc5c4C(=O)N(C4CCC(=O)NC4=O)C5=O)CC3)nc(C3CCCCC3)nc2cc1OCCCN1CCCC1` (stereo not given) as the compound, how does the inhibition [1] read?
**A.** The inhibition was “Active”.

**Q.** What about the Activity [2] of the same compound?
**A.** Its Activity is “inactive”.

**Q.** How did the Activity [3] turn out when `COc1cc2c(NC3CCN(CCCC(=O)NCCCCCCCCNc4cccc5c4C(=O)N(C4CCC(=O)NC4=O)C5=O)CC3)nc(C3CCCCC3)nc2cc1OCCCN1CCC(F)(F)CC1` (stereo not given) was run?
**A.** Its Activity is “inactive”.

**Q.** With `COc1cc2c(NC3CCN(CCCC(=O)NCCCCCCCCOc4cccc5c4C(=O)N(C4CCC(=O)NC4=O)C5=O)CC3)nc(C3CCCCC3)nc2cc1OCCCN1CCCC1` (stereo not given) as the compound, how does the inhibition [1] read?
**A.** Its inhibition is “Active”.

**Q.** For `N=C(NCCCCCCNC(=N)NC(=N)Nc1ccc(Cl)cc1)NC(=N)Nc1ccc(Cl)cc1`, which Activity [4] is on record?
**A.** Its Activity is “Active”.

**Q.** `COc1cc2c(NC3CCN(CCCC(=O)NCCOCCOCCNc4cccc5c4C(=O)N(C4CCC(=O)NC4=O)C5=O)CC3)nc(C3CCCCC3)nc2cc1OCCCN1CCCC1` (stereo not given) was tested. Which inhibition [1] did it give?
**A.** The inhibition was “Active”.

**Q.** How did the inhibition [1] turn out when `COc1cc2c(NC3CCN(CCCC(=O)NCCCCCCCCNc4ccc5c(c4)C(=O)N(C4CCC(=O)NC4=O)C5=O)CC3)nc(C3CCCCC3)nc2cc1OCCCN1CCCC1` (stereo not given) was run?
**A.** The inhibition was “Active”.

**Q.** With `COc1cc2c(NC3CCN(C(=O)CCC(=O)NCCCCCCCCNc4cccc5c4C(=O)N(C4CCC(=O)NC4=O)C5=O)CC3)nc(C3CCCCC3)nc2cc1OCCCN1CCCC1` (stereo not given) as the compound, how does the Activity [5] read?
**A.** Its Activity is “inactive”.

**Q.** Which results are given for `O=C1CCC(N2C(=O)c3ccccc3C2=O)C(=O)N1` (stereo not given)?
**A.** Activity [6]: inactive; Activity [7]: inactive

**Q.** Which results are given for `COc1cc2c(NC3CCN(CCCC(=O)NCCCCCCCCCCNc4cccc5c4C(=O)N(C4CCC(=O)NC4=O)C5=O)CC3)nc(C3CCCCC3)nc2cc1OCCCN1CCCC1` (stereo not given)?
**A.** inhibition [1]: Active; Activity [2]: inactive
